These results are taken from patent US10945972B2, “Particulate materials” (Nektar Therapeutics, priority 2002, dated 2021).

The nature of data set [1]: Electrostatic charge in Faraday well (Example 3). The data set is classed as physicochemical. From the text:
Surface charge was examined by placing weighed portions of the samples in a Faraday well to measure their electrostatic charge.

The nature of data set [2]: Simple adhesion test in rotated glass jar (Example 3). The data set is classed as physicochemical. The settings on record: glass jar rotated for 5 minutes. As for the experimental part:
In this test, a small quantity of powder was weighed into a screw topped glass jar and the jar rotated for 5 minutes. The non-adhering powder was then tipped from the jar and weighed and the percentage powder adhering to the walls of the jar calculated.

A short description of data set [3]: Laser diffraction HELOS/RODOS of TBS (Example 8). Type of data set: physicochemical. The settings on record: 2 bar. As for the experimental part:
A small amount of TBS powder was analysed using a laser diffraction RODOS/VIBRI dispersing system (HELOS/RODOS, Sympatec GmbH, Clausthal-Zellerfeld, Germany). The instrument consisted of a laser sensor HELOS and a RODOS dry-powder air-dispersion system (Sympatec GmbH, Clausthal-Zellerfeld, Germany). Different measurement ranges of the laser sensor were provided by interchangeable objectives R1 (0.1-35 μm) and R2 (0.25-87.5 μm). The rate of powder dispersion was controlled by adjusting the pressure of the compressed air flow. A pressure of 2 bar was sufficient to achieve deagglomeration of primary particles without attrition.

Data set [4] is described as follows: AEROSIZER time-of-flight of TBS (Example 8). Type of data set: physicochemical. As for the experimental part:
The TBS samples were also analysed using an AEROSIZER™ (Amherst Process Instruments, Amherst, Mass., USA), provided with pulse jet disperser, the AERODISPERSER™, to introduce the powders to the instrument. The measurement range of the AEROSIZER™ is nominally from 0.2 to 200 μm of aerodynamic diameter with the standard 750 μm diameter tapered nozzle. The micronized and SEDS™ TBS samples were analyzed for 300 seconds in triplicate using normal deagglomeration conditions, feed rate (5000 particles per second) and medium shear force (0.5 psi).

Data set [5] can be described thus: Differential scanning calorimetry (Example 8). The data set is classed as physicochemical. The settings on record: DSC, 10° C. min^−1. As for the experimental part:
Prior to sample analysis, a baseline was obtained which was used as a background. […] Temperature and enthalpy were calibrated with the standard materials indium (melting point=156.6° C.) and zinc (melting point=419.5° C.). Samples (1-10) were accurately weighed into pierced, crimped aluminium pans and heated at 10° C. min^−1 over a heating range of 25-290° C. under a nitrogen purge. A chiller unit was used in conjunction with the calorimeter to attain the lower temperatures.

Data set [6] can be described thus: Isothermal microcalorimetry, TAM with RH ramp (Example 8). The settings on record: 25° C., RH ramp 0 to 90% at 3% RH/hr. The data set is classed as physicochemical. As for the experimental part:
A Thermal Activity Monitor (TAM, model 2277; Thermometric A B, Jrflla, Sweden) was used to measure the calorimetric heat flow (μW) vs. % RH profile of each sample. A RH-perfusion cell (Model 2255-120) accessory for the TAM was used to control RH within the sample vessel. The carrier gas, dry N2, was flowed at a constant rate (1.48 cm^3/min). All experiments were performed at 25° C. About 100 to 105 mg accurately weighed of each powder were placed in a stainless steel ampoule, attached to the RH perfusion cell, and then dried under 0% RH until a stable heat flow signal was reached (e.g., a signal within the range of −1 to +1 μW). The RH was then increased in a linear ramp from 0 to 90% over the following 30 hours (i.e., 3% RH/hr). The heat flow arising from interactions of water vapor with the solid sample was measured as a function of time. Since RH changed with time in a linear fashion, the heat flow was also known as a function of RH.
The TAM measures the total heat flow in power, P, produced from either a physical or chemical reaction. In this study, the calorimetric power is proportional to the rate of moisture sorption or desorption, crystallization, and/or other processes. Exothermic events are measured as a deflection in the positive y-axis direction. Although crystallization is an exothermic process, it can be observed as a net endothermic process. During crystallization, there is an exotherm due to crystallization and a simultaneous endotherm due to desorption of previously sorbed moisture. The TAM profile gives the resultant of these processes.

A short description of data set [7]: Inverse gas chromatography of TBS (Example 8). Type of data set: physicochemical. As to conditions: for γs^D mJm^−2: 30° C., 0% RH; for −ΔGA^SP (kJ/mol) Acetone: probe acetone; for −ΔGA^SP (kJ/mol) Ethyl acetate: probe ethyl acetate; for −ΔGA^SP (kJ/mol) Toluene: probe toluene. Here is the method:
An empty GC column was uniformly packed with the powder of interest (TBS). Pre-silanized commercially available straight glass columns of 30 cm length with a 3 mm internal diameter were used in this investigation. The silanation procedure was necessary to minimize active sites on the inner glass surfaces, which strongly interact with polar probes. Each column was packed at the detector end with a small amount of silanised glass wool, was clipped to a stand and powder was added through a glass funnel with the aid of a mechanical column packer (tapping) to improve powder flow and remove any air gaps. […] A. Hewlett Packard 6890 Series Gas Chromatograph (GC) (Hewlett Packard, Penna, USA) oven equipped with an autosampler was used to control the solvent temperature. The 6890 GC data acquisition system was used to record data from a thermal conductivity detector (TCD) and flame ionisation detector (FID) with the instrument modified for IGC by Surface Measurement Systems (SMS), Manchester, UK. The combination of detectors allowed sensitive analysis of both organic vapour elution and water (although RH was not raised above 0% for these experiments).
The whole system was fully automated by control software (SMS iGC Controller v1.3) and the data analyzed using SMS iGC Analysis macros. Prior to analysis, each column was equilibrated at 30° C. and 0% relative humidity (RH) for 5 hours by passing dry helium gas through the column. Helium gas was also used as the carrier gas. Hydrogen and compressed air flow rates were set at 40 and 450 ml min respectively for the FID. The chromatograph injection port was maintained at 80° C., TCD detector at 150° C. and the FID detector at 150° C. Column temperature was set at 30° C. throughout analysis. Data were obtained by flowing helium gas at 10 ml min^−1 through the sinalized glass column packed with a known weight of powdered material and injecting small amounts (concentration P/Po=0.05) of a range of probe vapors with different polarities. The retention times of the probes were measured using SMS iGC Controller v1.3 software, at infinite dilution or near zero surface coverage (equivalent to 10^−4-10^−7 μl of liquid) where retention is independent of the quantity of probe injected. For each sample, two columns were prepared and analysed by employing a method based on standard settings, which allows the precise control and measurement of experimental variables. This is essential in producing meaningful results. The data were used to calculate the dispersive and non-dispersive forces acting at TBS particle surfaces using the method developed by Schultz and co-workers (J. Schultz, L. Lavielle and C. Martin. The role of the interface in carbon fibre-epoxy composites, J. Adhesion, 23, 45-60 (1987)).

The nature of data set [8]: BET nitrogen adsorption specific surface area (Example 2). The data set is classed as physicochemical. As for the experimental part:
Data on specific surface areas required for IGC studies were determined by BET nitrogen adsorption using a Surface Area Analyzer Coulter SA 3100 (Coulter Corp., Miami, Fla., USA). Samples were placed in glass sample holders and out-gassed with helium (purity >99.999%) at 40° C. for 16 hours before analysis. Nitrogen (purity >99.999%) was used as adsorbate and BET surface area was recorded as specific surface area of the samples. All measurements were performed in triplicate using the same batch of each material.

A short description of data set [9]: Inverse gas chromatography of SX powders (Example 2).

Where a name gives a salt, the structure may show the parent alone.

Take salbutamol sulphate [Unprocessed]: in [1], the “Electrostatic Charge (nC/g)” value is recorded as −23.1 nC/g. Further, in data set [2], the “Relative Powder Adhesion (to container walls)” value is 8.6.
On the same counts, the results for salbutamol sulphate [SEDS] are −0.2 nC/g and 1.0.
On to `CC(C)(C)NCC(O)c1cc(O)cc(O)c1` (stereo not shown) [TBS 1, terbutaline sulfate], for which the “Sympatec D4, 3 (μm)” value in [3] amounted to 3.22 μm. Besides, the “Aerosizer D4, 3 (μm)” value in data set [4] was 3.31 μm. Also, the “Enthalpy of Fusion” value in data set [5] is 127.12 J/g. The “Enthalpy of Fusion” value in data set [5] (listed as TBS1) was 127.12 J/g. Besides, the “RH of thermal event in TAM profile” value in data set [6] is given as “No exothermic or endothermic peaks were observed”. Besides, in data set [7], the KA worked out at 0.761, the “γs^D mJm^−2” value is given as 57.37 mJm^−2, the “−ΔGA^SP (kJ/mol) Acetone” value is recorded as 13.41 kJ/mol and the “−ΔGA^SP (kJ/mol) Ethyl acetate” value is recorded as 16.65 kJ/mol. The “−ΔGA^SP (kJ/mol) Toluene” value in data set [7] stood at 3.66 kJ/mol.
As for “salbutamol sulphate [Micronised, reference compound]”, the “Electrostatic Charge (nC/g)” value in data set [1] is recorded as −42.6 nC/g. Moreover, in data set [2], the “Relative Powder Adhesion (to container walls)” value is reported as 18.6. The “Sympatec D4, 3 (μm)” value in data set [3] is 3.04 μm. Further, in [4], the “Aerosizer D4, 3 (μm)” value is 2.69 μm. The “Enthalpy of Fusion” value in data set [5] is listed as 121.76 J/g. Besides, in data set [7], the KA amounted to 0.892, the “γs^D mJm^−2” value was found to be 58.61 mJm^−2, the “−ΔGA^SP (kJ/mol) Acetone” value turned out to be 12.57 kJ/mol and the “−ΔGA^SP (kJ/mol) Ethyl acetate” value is given as 16.01 kJ/mol. Also, the “−ΔGA^SP (kJ/mol) Toluene” value in [7] is given as 3.42 kJ/mol. Further, in data set [7] (probe chloroform), the “−ΔGA^SP (kJ/mol) Chloroform” value was 1.79 kJ/mol. In addition, the “−ΔGA^SP (kJ/mol) Dioxane” value in data set [7] (probe dioxane) worked out at 15.96 kJ/mol.
Regarding `OCc1cc(C(O)CNCCCCCCOCCCCc2ccccc2)ccc1O` (stereo not shown) [G-SX, Salmeterol xinafoate], in data set [8], the “SV (specific surface area)” value is reported as 10.699. For the same compound, the KA in data set [9] (acidity parameter) was 0.233. In [9] (column at 40° C.), the “γs^D (mJ/m^2)” value is given as 36.972 mJ/m^2. In data set [9] (probe acetone), the “−ΔGA^SP (kJ/mol) Acetone” value was 5.454 kJ/mol. Besides, in data set [9] (probe chloroform), the “−ΔGA^SP (kJ/mol) Chloroform” value was determined as 1.885 kJ/mol. Further, in [9] (probe diethyl ether), the “−ΔGA^SP (kJ/mol) Diethyl ether” value is 2.958 kJ/mol. Besides, the “−ΔGA^SP (kJ/mol) Ethyl acetate” value in data set [9] (probe ethyl acetate) came out at 4.739 kJ/mol. For the same compound, in [9] (probe tetrahydrofuran), the “−ΔGA^SP (kJ/mol) Tetrahydrofuran” value came to 4.854 kJ/mol.
